Measured values published in patent US20200009173A1, “TRIAZOLE-CONTAINING MACROLIDES AND OPHTHALMIC USES THEREFOR” (Tetard, Inc., priority 2017, published 2020).
In brackets after ≈: the same amount, converted by molar mass. Where two headings read alike, the source gives them in different places.

Key:
Listeria monocytogenes = experiment: MIC, Listeria monocytogenes; format: cell-based; conditions: N = 10
Mycoplasma hominis = experiment: MIC, Mycoplasma hominis; format: cell-based; conditions: N = 13
TNFα = TNFα production in LPS-stimulated PMA-differentiated U937 cells (ELISA); format: cell-based, human
Procedure: EXAMPLE. […] Cells. The human monocytic cell line U937 was obtained from the American Type Culture Collection (ATCC, Rockville, Md.). PBMCs from COPD patients were obtained from Brompton hospital and separated by AccuSPIN (Sigma-Aldrich). […] U937 cells were differentiated into adherent macrophage-like morphology by exposure to PMA (50 ng/ml) for 48 h in complete growth medium. Cell viability was assessed microscopically by trypan blue staining. Cell toxicity was determined by MTT assay as needed. This study was approved by the ethics committee of the Royal Brompton Hospitals, and all subjects gave written informed consent. Cytokine ELISA. TNFα and IL-8 concentrations in the supernatant of cell cultures were determined by sandwich ELISA according to the manufacturer's instructions (R&D Systems Europe, Abingdon, UK). Statistical analysis. The results were expressed as the mean±SEM. Comparisons of data in two groups were performed using the Student's t test or the Wilcoxon signed rank test. Multiple comparisons were made by one-way ANOVA with post hoc test (Dunnett's) as appropriate. The difference was considered significant at p<0.05. […] Anti-inflammatory effects of solithromycin in U937 cells.

Haemophilus influenzae = experiment: MIC, Haemophilus influenzae (100 strains); format: cell-based
MSSA = experiment: MICs of solithromycin and comparator drugs, MSSA (31 species); format: cell-based
Excerpt: EXAMPLE. The formulations described herein show overall higher potency against ocular pathogens than commercial standards.
MICs (μg/ml) of Solithromycin and Comparator Drugs against Bacterial Species

[1] = MIC in the presence of serum; format: cell-based; conditions: 10% serum
[2] = system: Haemophilus parainfluenzae; experiment: MIC, Haemophilus parainfluenzae; format: cell-based; conditions: N = 11
Streptococcus pneumoniae = experiment: MIC, Streptococcus pneumoniae (150 strains); format: cell-based
[3] = Corneal permeability, Franz-Cell Diffusion Apparatus; format: in vitro ADME; conditions: bovine (calf), pH 7
Procedure: EXAMPLE. Corneal Permeability. Corneal permeability is determined using conventional protocols. Briefly, corneal permeability is determined on freshly excised bovine (calf) cornea using a Franz-Cell Diffusion Apparatus generally with n=3/group. Freshly excised calf cornea are stored until use in hydrating solution containing glutathione and buffer. The Apparatus includes a donor chamber on the top where a predetermined volume of the formulation is pipetted and a jacketed receptor cell with a sampling side arm. The joint between the donor and receptor cell is upward-convex, mimicking the shape of the cornea. The corneal membrane is placed on the ball joint with the cornea facing the donor chamber. The Apparatus is clamped to secure the cells with the donor and receptor chambers aligned. […] The volume is recorded. […] Test samples are added in rapid succession by depositing 200 μL of the formulation into each donor chamber using a calibrated pipet and the times recorded. […] Flux can be calculated by the formula: J=Q/(A·t), where Q is the quantity (micrograms) of compound traversing the membrane in time t (minutes), and A is the area of exposed membrane in cm^2. […] After completion of the diffusion, corneas are weighed to determine the quantity of bound test compound in the cornea, and the corneal thicknesses of each cornea is measured at the point of diffusion (the center) using Vernier calipers. […]

MMP9 = MMP9 activity in PMA-stimulated U937 cells (gelatin zymography); format: cell-based, human; conditions: Homo sapiens, U-937
Procedure: EXAMPLE. […] Cells. The human monocytic cell line U937 was obtained from the American Type Culture Collection (ATCC, Rockville, Md.). PBMCs from COPD patients were obtained from Brompton hospital and separated by AccuSPIN (Sigma-Aldrich). […] U937 cells were differentiated into adherent macrophage-like morphology by exposure to PMA (50 ng/ml) for 48 h in complete growth medium. Cell viability was assessed microscopically by trypan blue staining. Cell toxicity was determined by MTT assay as needed. This study was approved by the ethics committee of the Royal Brompton Hospitals, and all subjects gave written informed consent. Zymography. MMP9 enzyme activity was measured by gelatin zymography. […] After electrophoresis, gels were incubated and rinsed with Novex® zymogram renaturing buffer (Invitrogen) for 30 min at room temperature. The gels were then rinsed in Novex® zymogram developing buffer (Invitrogen) for 30 min at room temperature prior to overnight incubation in the developing buffer at 37° C. After incubation, the gels were stained using a Colloidal Blue Staining Kit (Invitrogen) to visualize the zymogen bands. Statistical analysis. The results were expressed as the mean±SEM. Comparisons of data in two groups were performed using the Student's t test or the Wilcoxon signed rank test. Multiple comparisons were made by one-way ANOVA with post hoc test (Dunnett's) as appropriate. The difference was considered significant at p<0.05.

CC[C@H]1OC(=O)[C@@](C)(F)C(=O)[C@H](C)[C@@H](O[C@@H]2O[C@H](C)C[C@H](N(C)C)[C@H]2O)[C@](C)(OC)C[C@@H](C)C(=O)[C@H](C)[C@H]2N(CCCCn3cc(-c4cccc(N)c4)nn3)C(=O)O[C@]12C [CEM-101, solithromycin]
MIC50 (Listeria monocytogenes; Listeria monocytogenes): 0.03 µg/mL (≈ 0.0355 µM) | MIC90 (Listeria monocytogenes; Listeria monocytogenes): 0.03 µg/mL (≈ 0.0355 µM) | MIC Range (Listeria monocytogenes): 0.03 µg/mL (≈ 0.0355 µM) | MIC50 (Mycoplasma hominis; Metamycoplasma hominis): 0.004 µg/mL (≈ 0.00473 µM) | MIC90 (Mycoplasma hominis; Metamycoplasma hominis): 0.008 µg/mL (≈ 0.00947 µM) | MIC Range (Mycoplasma hominis): 0.002 to 0.008 µg/mL | IC50 (TNFα; Homo sapiens, U-937, LPS, PMA-differentiated U937 cells, read-out: IC50 on TNFα release): 41.6 ± 1.9 µM | effect on TNFα production (TNFα; at 100 μM): significantly inhibited | MIC90 (Haemophilus influenzae; Haemophilus influenzae, 100 strains, read-out: MIC90): 2 µg/mL (≈ 2.37 µM) | MIC50 (Haemophilus influenzae; Haemophilus influenzae, N = 100): 1 µg/mL (≈ 1.18 µM) | MIC90 (Haemophilus influenzae; N = 100): 2 µg/mL (≈ 2.37 µM) | MIC Range (Haemophilus influenzae; N = 100): 0.12 to 4 µg/mL | I (intermediate susceptibility) (MSSA): 0% | MIC Range (MSSA): 0.004 to 64 µg/mL | NS (not susceptible) (MSSA): 6% | S (susceptible) (MSSA): 94% | MIC50 (MSSA; Staphylococcus aureus, MSSA): 0.015 µg/mL (≈ 0.0178 µM) | MIC90 (MSSA; Staphylococcus aureus, MSSA): 0.03 µg/mL (≈ 0.0355 µM) | change in MIC in the presence of serum [1]: 2 fold | MIC50 ([2]; Haemophilus parainfluenzae): 2 µg/mL (≈ 2.37 µM) | MIC90 ([2]; Haemophilus parainfluenzae): 2 µg/mL (≈ 2.37 µM) | MIC Range [2]: 1 to 2 µg/mL | MIC90 (Streptococcus pneumoniae; N = 150): 0.25 µg/mL (≈ 0.296 µM) | MIC Range (Streptococcus pneumoniae; N = 150): ≤0.008 to 0.5 µg/mL | MIC90 (Streptococcus pneumoniae; Streptococcus pneumoniae, 150 strains, read-out: MIC90): 0.25 µg/mL (≈ 0.296 µM) | MIC50 (Streptococcus pneumoniae; Streptococcus pneumoniae, N = 150): 0.015 µg/mL (≈ 0.0178 µM) | concentration in receptor fluid (therapeutically effective) ([3]; 1 h): ≥ 1000 ng/mL | time after administration at which drug was observed in receptor fluid [3]: ≤ 1 h | IC50 (MMP9): 14.9 ± 3.1 µM
